Experimental data: patent publication US10065990B2, “Cyclic peptide compound, and preparation method, pharmaceutical composition and use thereof” (HANGZHOU GUANYU BIO-MEDICAL CO., LTD, priority 2013, dated 2018)
Like-named read-outs stand apart in the source and are kept apart here.

Tests used:
HDAC2 = HDAC2 (Homo sapiens, UniProt Q92769); test: HDAC biochemical activity measurement (fluorescent substrate deacetylation);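 also: HDAC2 enzyme with an acetyl-lysine fluorescent substrate, then developer added, fluorescence read at excitation 360 nm and emission 460 nm, inhibition measured across several compound concentrations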; details: 37° C. 30 minutes
[1] = test system: HT1080 (human fibrosarcoma cells); test: MTT cancer cell growth inhibition; type: cell-based; details: Homo sapiens, HT-1080, 72 h, MTT
Outline: (§1)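 Cells grown in DMEM or RPMI 1640 with 10% FBS were seeded at 1500/well and left overnight at 37° C., 5% CO2. Compounds at final 10^−5 to 10^−10 M were added in triplicate for 72 h. MTT was then added for 4 h, formazan dissolved in DMSO, and absorbance read at 570 nm to derive GI50.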

[2] = test system: SGC-7901 (human gastric cancer cells); test: MTT cancer cell growth inhibition; type: cell-based; details: Homo sapiens, SGC-7901, 72 h, MTT, 72 hours incubation, SGC-7901 cells; read-out: GI50 SGC-7901
Outline: as §1

[3] = test system: Huh-7 (human hepatoma cells); test: MTT cancer cell growth inhibition; type: cell-based; details: Homo sapiens, Huh-7, 72 h, MTT, 72 hours incubation, Huh-7 cells; read-out: GI50 Huh-7
Outline: as §1

[4] = test system: H1975 (non-small cell lung adenocarcinoma); test: MTT cancer cell growth inhibition; type: cell-based; details: Homo sapiens, NCI-H1975, 72 h, MTT, 72 hours incubation, H1975 cells; read-out: GI50 H1975
Outline: as §1

[5] = test system: K562 (human leukemia cells); test: MTT cancer cell growth inhibition; type: cell-based; details: Homo sapiens, K562, 72 h, MTT, 72 hours incubation, K562 cells; read-out: GI50 K562
Outline: as §1

[6] = test system: Bel-7402 (human hepatoma cells); test: MTT cancer cell growth inhibition; type: cell-based; details: Homo sapiens, Bel-7402, 72 h, MTT, 72 hours incubation, Bel-7402 cells; read-out: GI50 Bel-7402
Outline: as §1

[7] = test system: U937 (human leukemia cells); test: MTT cancer cell growth inhibition; type: cell-based; details: Homo sapiens, U-937, 72 h, MTT
Outline: as §1

[8] = test system: Hela (human cervical cancer cells); test: MTT cancer cell growth inhibition; type: cell-based; details: Homo sapiens, HeLa, 72 h, MTT
Outline: as §1

[9] = test system: PANC-1 (Pac-1, human pancreatic cancer cells); test: MTT cancer cell growth inhibition; type: cell-based; details: Homo sapiens, PANC-1, 72 h, MTT
Outline: as §1

[10] = test system: KBM-5 (human chronic myelogenous leukemia); test: MTT cancer cell growth inhibition; type: cell-based; details: Homo sapiens, KBM5, 72 h, MTT, 72 hours incubation, KBM-5 cells; read-out: GI50 KBM-5
Outline: as §1

[11] = test system: lncap (prostate cancer cells); test: MTT cancer cell growth inhibition; type: cell-based; details: Homo sapiens, LNCaP, 72 h, MTT
Outline: as §1

[12] = test system: A549 (human lung cancer cells); test: MTT cancer cell growth inhibition; type: cell-based; details: Homo sapiens, A549, 72 h, MTT
Outline: as §1

[13] = test system: N-87 (human gastric cancer cells); test: MTT cancer cell growth inhibition; type: cell-based; details: Homo sapiens, 72 h, MTT, 72 hours incubation, N-87 cells; read-out: GI50 N-87
Outline: as §1

[14] = test system: MCF-7 (human breast cancer cells); test: MTT cancer cell growth inhibition; type: cell-based; details: Homo sapiens, MCF7, 72 h
Outline: as §1

[15] = test system: MDA-MB-231 (breast cancer cells); test: MTT cancer cell growth inhibition; type: cell-based; details: Homo sapiens, MDA-MB-231, 72 h, read-out: GI50 MDA-MB-231, MTT, 72 hours incubation, MDA-MB-231 cells
Outline: as §1

[16] = test system: MOLT-4 (human acute lymphoblastic leukemia cells); test: MTT cancer cell growth inhibition; type: cell-based; details: Homo sapiens, MOLT-4, 72 h, MTT
Outline: as §1

[17] = test system: HCC827 (human non-small cell lung cancer cells); test: MTT cancer cell growth inhibition; type: cell-based; details: Homo sapiens, HCC827, 72 h, MTT, 72 hours incubation, HCC827 cells; read-out: GI50 HCC827
Outline: as §1

[18] = test system: BGC-823 (human gastric cancer cells); test: MTT cancer cell growth inhibition; type: cell-based; details: Homo sapiens, BGC-823, 72 h, MTT
Outline: as §1

[19] = test system: KBM5-T315I (human chronic myelogenous leukemia); test: MTT cancer cell growth inhibition; type: cell-based; details: Homo sapiens, 72 h, MTT, 72 hours incubation, KBM5-T315I cells; read-out: GI50 KBM5-T315I
Outline: as §1

[20] = test system: DU145 (human prostate cancer cells); test: MTT cancer cell growth inhibition; type: cell-based; details: Homo sapiens, DU-145, 72 h, MTT
Outline: as §1

[21] = HT1080 cells, 72 hours incubation, read-out: GI50 HT1
[22] = U937 cells, 72 hours incubation, read-out: GI50 U93
[23] = Hela cells, 72 hours incubation, read-out: GI50 Hela
[24] = PANC-1 cells, 72 hours incubation, read-out: GI50 PAN
[25] = lncap cells, 72 hours incubation, read-out: GI50 lnca
[26] = A549 cells, 72 hours incubation, read-out: GI50 A54
[27] = MCF-7 cells, 72 hours incubation, read-out: GI50 MCF
[28] = MOLT-4 cells, 72 hours incubation, read-out: GI50 Mol
[29] = BGC-823 cells, 72 hours incubation, read-out: GI50 BG
[30] = DU145 cells, 72 hours incubation, read-out: GI50 Du1

HDAC2, sequence (Q92769 whole entry, species assumed): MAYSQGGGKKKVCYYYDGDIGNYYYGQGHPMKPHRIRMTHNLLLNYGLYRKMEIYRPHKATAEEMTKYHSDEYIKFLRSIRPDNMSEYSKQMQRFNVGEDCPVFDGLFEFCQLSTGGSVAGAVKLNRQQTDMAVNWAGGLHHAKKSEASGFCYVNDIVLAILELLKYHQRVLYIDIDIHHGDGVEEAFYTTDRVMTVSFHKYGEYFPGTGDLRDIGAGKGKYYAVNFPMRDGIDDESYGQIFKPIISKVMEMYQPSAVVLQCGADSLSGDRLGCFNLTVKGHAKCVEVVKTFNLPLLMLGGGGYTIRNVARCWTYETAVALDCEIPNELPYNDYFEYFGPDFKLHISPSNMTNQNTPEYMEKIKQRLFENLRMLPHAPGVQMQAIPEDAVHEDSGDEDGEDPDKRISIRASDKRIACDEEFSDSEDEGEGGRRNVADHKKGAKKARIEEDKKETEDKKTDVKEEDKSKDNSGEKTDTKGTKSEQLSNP

Row | Structure (SMILES) | IC50 (HDAC2) [nM] | GI50 [1, 21] [nM] | GI50 [2] [nM] | GI50 [3] [nM] | GI50 [4] [nM] | GI50 [5] [nM] | GI50 [6] [nM] | GI50 [7, 22] [nM] | GI50 [9, 24] [nM] | GI50 [10] [nM] | GI50 [11, 25] [nM] | GI50 [12, 26] [nM] | GI50 [13] [nM] | GI50 [14, 27] [nM] | GI50 [15] [nM] | GI50 [16, 28] [nM] | GI50 [17] [nM] | GI50 [18, 29] [nM] | GI50 [19] [nM] | GI50 [20, 30] [nM] | also measured
1 | C/C=C1\NC(=O)c2nc(ccc2SC)CNC(=O)C[C@@H](/C=C/CCSC(=O)CCCCCCC)OC(=O)[C@H](C(C)C)NC1=O [Compound 147] | 41 | 80 | 45 | 57 | 26 | 37 | 28 | 30 | 50 | 23 | 50 | 30 | 83 | 40 | 78 | 80 | 28 | 50 | 26 | 40 | GI50 [8, 23]: 50 nM
2 | C/C=C1\NC(=O)c2cc(SC)cc(n2)CNC(=O)C[C@@H](/C=C/CCSC(C)=O)OC(=O)[C@H](CCCCN)NC1=O [Compound 193] | 25 | 10 | 73 | 33 | 11 | 35 | 35 | 50 | 80 | 31 | 80 | 40 | 23 | 70 | 43 | 40 | 18 | 30 | 41 | 30 | GI50 [8, 23]: 430 nM
3 | C/C=C1\NC(=O)c2nc(ccc2SC)CNC(=O)C[C@@H](/C=C/CCSC(=O)CCCCC)OC(=O)[C@H](C(C)C)NC1=O [Compound 153] | 31 | 80 | 83 | 75 | 31 | 32 | 96 | 30 | 20 | 28 | 50 | 30 | 28 | 60 | 57 | 80 | 28 | 20 | 31 | 60 | GI50 [8, 23]: 50 nM
4 | C/C=C1\NC(=O)c2cc(SC)cc(n2)CNC(=O)C[C@@H](/C=C/CCSC=O)OC(=O)[C@H](C(C)C)NC1=O [Compound 169] | 52 | 60 | 62 | 61 | 44 | 37 | 46 | 20 | 40 | 51 | 50 | 40 | 55 | 70 | 35 | 40 | 29 | 60 | 47 | 70 | GI50 [8, 23]: 20 nM
5 | C=C1NC(=O)c2cc(SC)cc(n2)CNC(=O)C[C@@H](/C=C/CCSC(C)=O)OC(=O)[C@H](C(C)C)NC1=O [Compound 205] | 52 | 10 | 59 | 47 | 64 | 53 | 56 | 40 | 30 | 15 | 60 | 50 | 49 | 70 | 39 | 50 | 62 | 50 | 27 | 60 | GI50 [8, 23]: 70 nM
6 | C=C1NC(=O)c2cccc(n2)CNC(=O)C[C@@H](/C=C/CCSC(=O)CCCCCCC)OC(=O)[C@H](C(C)C)NC1=O [Compound 244] | 53 | 760 | 36 | 92 | 73 | 53 | 29 | 890 | 770 | 23 | 990 | 120 | 83 | 330 | 35 | 110 | 28 | 390 | 12 | 950 | GI50 ([1]; 72 hours, present invention, read-out: GI50 HT1080, a): 760 nM; GI50 ([7]; 72 hours, present invention, read-out: GI50 U937, a): 890 nM; GI50 ([8]; 72 hours, present invention, read-out: GI50 Hela, a): 8 nM; GI50 ([9]; 72 hours, present invention, read-out: GI50 PANC-1, a): 770 nM; GI50 ([11]; 72 hours, present invention, read-out: GI50 lncap, a): 990 nM; GI50 ([12]; 72 hours, present invention, read-out: GI50 A549, a): 120 nM; GI50 ([14]; 72 hours, present invention, read-out: GI50 MCF7, a): 330 nM; GI50 ([16]; 72 hours, present invention, read-out: GI50 Molt-4, a): 110 nM; GI50 ([18]; 72 hours, present invention, read-out: GI50 BGC823, a): 390 nM; GI50 ([20]; 72 hours, present invention, read-out: GI50 Du145, a): 950 nM
